Molecules are shown by their SMILES.

Nav1.5 (sodium channel protein type 5 subunit alpha), sequence (Q14524 whole entry): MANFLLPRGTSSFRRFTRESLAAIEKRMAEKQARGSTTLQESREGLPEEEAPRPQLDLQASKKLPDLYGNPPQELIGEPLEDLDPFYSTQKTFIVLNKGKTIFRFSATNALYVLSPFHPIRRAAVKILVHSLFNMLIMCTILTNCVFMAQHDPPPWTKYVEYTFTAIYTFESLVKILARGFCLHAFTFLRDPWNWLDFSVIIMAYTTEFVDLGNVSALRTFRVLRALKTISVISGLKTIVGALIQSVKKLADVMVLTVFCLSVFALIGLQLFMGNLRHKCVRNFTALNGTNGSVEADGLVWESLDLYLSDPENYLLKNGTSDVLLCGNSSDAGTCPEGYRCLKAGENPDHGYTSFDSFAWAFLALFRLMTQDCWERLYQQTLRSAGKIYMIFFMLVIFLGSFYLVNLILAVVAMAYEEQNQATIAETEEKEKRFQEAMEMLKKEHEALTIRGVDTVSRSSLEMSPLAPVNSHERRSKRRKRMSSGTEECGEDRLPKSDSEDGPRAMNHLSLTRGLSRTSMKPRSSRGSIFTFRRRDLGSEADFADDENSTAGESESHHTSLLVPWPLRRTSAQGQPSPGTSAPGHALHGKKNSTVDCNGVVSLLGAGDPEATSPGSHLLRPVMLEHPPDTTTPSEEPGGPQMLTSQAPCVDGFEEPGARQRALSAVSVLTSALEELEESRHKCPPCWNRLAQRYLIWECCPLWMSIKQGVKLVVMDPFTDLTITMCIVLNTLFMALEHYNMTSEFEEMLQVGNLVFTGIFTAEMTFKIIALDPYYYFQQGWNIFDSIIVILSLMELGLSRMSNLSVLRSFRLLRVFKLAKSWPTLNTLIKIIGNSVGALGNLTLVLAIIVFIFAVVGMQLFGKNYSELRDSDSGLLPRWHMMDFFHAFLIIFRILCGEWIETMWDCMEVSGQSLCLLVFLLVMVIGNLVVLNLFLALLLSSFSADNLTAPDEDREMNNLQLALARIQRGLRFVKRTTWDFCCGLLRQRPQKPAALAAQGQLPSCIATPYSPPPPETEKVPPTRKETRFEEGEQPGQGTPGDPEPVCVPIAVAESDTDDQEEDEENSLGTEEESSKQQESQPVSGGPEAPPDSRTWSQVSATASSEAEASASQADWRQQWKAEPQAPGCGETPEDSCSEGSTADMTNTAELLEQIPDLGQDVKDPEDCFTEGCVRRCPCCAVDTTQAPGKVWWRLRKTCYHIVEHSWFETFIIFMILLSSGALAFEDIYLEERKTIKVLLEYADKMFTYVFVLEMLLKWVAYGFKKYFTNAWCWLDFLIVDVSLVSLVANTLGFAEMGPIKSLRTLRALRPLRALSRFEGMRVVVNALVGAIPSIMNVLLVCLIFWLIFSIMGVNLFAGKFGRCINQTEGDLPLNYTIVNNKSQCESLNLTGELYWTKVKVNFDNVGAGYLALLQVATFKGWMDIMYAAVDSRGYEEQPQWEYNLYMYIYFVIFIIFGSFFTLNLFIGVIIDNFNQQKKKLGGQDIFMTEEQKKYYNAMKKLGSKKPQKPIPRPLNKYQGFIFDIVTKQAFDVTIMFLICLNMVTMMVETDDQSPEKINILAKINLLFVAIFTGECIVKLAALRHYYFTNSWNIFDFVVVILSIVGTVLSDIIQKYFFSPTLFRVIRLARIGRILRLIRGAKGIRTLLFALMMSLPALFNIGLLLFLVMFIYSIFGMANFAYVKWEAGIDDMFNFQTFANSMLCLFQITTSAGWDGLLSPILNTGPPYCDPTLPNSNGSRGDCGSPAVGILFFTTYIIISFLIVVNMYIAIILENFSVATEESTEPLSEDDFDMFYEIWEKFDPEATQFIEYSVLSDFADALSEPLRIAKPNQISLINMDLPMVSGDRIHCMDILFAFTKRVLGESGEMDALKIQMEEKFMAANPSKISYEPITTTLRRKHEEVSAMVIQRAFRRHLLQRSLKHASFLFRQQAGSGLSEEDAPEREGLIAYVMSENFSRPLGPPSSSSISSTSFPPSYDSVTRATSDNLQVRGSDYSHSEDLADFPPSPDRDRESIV

This series addresses Nav1.5 (sodium channel protein type 5 subunit alpha) (Homo sapiens, UniProt Q14524). Kind of series: Inhibition of human Nav1.5 expressed in HEK293 cells at 1 uM by whole cell patch clamp assay. Type of series: cell-based. The settings on record: HEK293 cells that express human Nav1.5. (In patch-clamp work, channel activity is measured electrically.)
By inhibition is commonly meant the share of the control response that was lost under treatment. `Cc1nc(Cn2nc3ccc(-c4ccc(Oc5ccc(Cl)cc5)cc4)cn3c2=O)no1` registered an inhibition at 1 µM of 68.4%.
In turn, `Cc1noc(Cn2nc3ccc(-c4ccc(Oc5ccc(Cl)cc5)cc4)cn3c2=O)n1` came in with an inhibition at 1 µM of 55.8%.
To `COc1ccccc1OCC(Cn1nc2ccc(-c3ccc(OC(F)(F)F)cc3)cn2c1=O)OC` (centres undefined) belongs 55%; to `Cc1noc(Cn2nc3ccc(-c4ccc(Oc5ccc(F)cc5)cc4)cn3c2=O)n1`, 71.2%.

The values above are taken from ChEMBL document CHEMBL2146374, “Fused heterocyclic compounds as ion channel modulators: patent highlight” (ACS Med Chem Lett, 2012).
